# Reference: patent US10548861B2 (Academia Sinica, priority 2015, dated 2020)
# Read-outs that look alike come from different tables or passages of the source.
# Legend:
# H69 = experiment: 72 hr cytotoxicity: SCLC classic; format: cell-based; conditions: Homo sapiens, NCI-H69
# H226 = experiment: cells; format: cell-based; conditions: Homo sapiens, NCI-H226; read-out: IC50
# H596 (PIK3CA) = experiment: cells; format: cell-based; conditions: Homo sapiens, NCI-H596; read-out: IC50
# H647 (KRAS) = experiment: cells; format: cell-based; conditions: Homo sapiens, NCI-H647; read-out: IC50
# H417 = experiment: 72 hr cytotoxicity: SCLC variant; format: cell-based; conditions: Homo sapiens, NCI-H417; read-out: IC50
# H526 = experiment: 72 hr cytotoxicity: SCLC variant; format: cell-based; conditions: Homo sapiens, NCI-H526; read-out: IC50
# H128 = experiment: 72 hr cytotoxicity: SCLC classic; format: cell-based; conditions: Homo sapiens, NCI-H128; read-out: IC50
# H187 = experiment: 72 hr cytotoxicity: SCLC classic; format: cell-based; conditions: Homo sapiens, NCI-H187; read-out: IC50
# H322 = experiment: cells; format: cell-based; conditions: Homo sapiens, NCI-H322; read-out: IC50
# H678 = experiment: 72 hr cytotoxicity: SCLC classic; format: cell-based; conditions: Homo sapiens; H678; read-out: IC50
# H249 = experiment: 72 hr cytotoxicity: SCLC classic; format: cell-based; conditions: Homo sapiens; H249; read-out: IC50
# H82 = experiment: 72 hr cytotoxicity: SCLC variant; format: cell-based; conditions: Homo sapiens, NCI-H82; read-out: IC50
# H562 = experiment: 72 hr cytotoxicity: SCLC classic; format: cell-based; conditions: Homo sapiens; H562; read-out: IC50
# H146 = experiment: 72 hr cytotoxicity: SCLC classic; format: cell-based; conditions: Homo sapiens, NCI-H146; read-out: IC50
# H520 (FGFR) = experiment: cells; format: cell-based; conditions: Homo sapiens, NCI-H520; read-out: IC50
# H125 = experiment: cells; format: cell-based; conditions: Homo sapiens, NCI-H125; read-out: IC50
# H524 = experiment: 72 hr cytotoxicity: SCLC variant; format: cell-based; conditions: Homo sapiens, NCI-H524; read-out: IC50
# H23 = experiment: cells; format: cell-based; conditions: Homo sapiens, NCI-H23; read-out: IC50
# H719 = experiment: 72 hr cytotoxicity: SCLC classic; format: cell-based; conditions: Homo sapiens; H719; read-out: IC50
# H60 = experiment: 72 hr cytotoxicity: SCLC classic; format: cell-based; conditions: Homo sapiens; H60; read-out: IC50
# H209 = experiment: 72 hr cytotoxicity: SCLC classic; format: cell-based; conditions: Homo sapiens, NCI-H209; read-out: IC50
# H358 KRAS = experiment: cells; format: cell-based; conditions: Homo sapiens, NCI-H358; read-out: IC50
# HS578 = experiment: 72 hr cytotoxicity: Breast epithelium; format: cell-based; conditions: Homo sapiens
# BEAS2B SV40 = experiment: cells; format: cell-based; conditions: Homo sapiens, BEAS-2B, 72 h
# [1] = tested on: normal cord blood CD34+ cells; experiment: Cytotoxicity on normal cord blood CD34+ cells; format: cell-based; conditions: Homo sapiens
# FTE-hTERT = experiment: 72 hr cytotoxicity: Fallopian epithelium; format: cell-based; conditions: Homo sapiens
# IMR90 = experiment: 72 hr cytotoxicity: fetal lung myofibroblast; format: cell-based; conditions: Homo sapiens
# BCI-NSI hTERT = experiment: 72 hr cytotoxicity: Bronchial epithelium; format: cell-based; conditions: Homo sapiens
# [2] = tested on: Cord Blood CFC (CFU-GM, BFU-E, CFU-C); experiment: cells; format: cell-based; conditions: Homo sapiens
# MS-5 (mouse) = experiment: 72 hr cytotoxicity: Adult BM stroma; format: cell-based; conditions: MS-5 murine stroma
# [3] = tested on: normal human, murine or primate cell and tissue types; experiment: MTT / alamar blue cytotoxicity on panel of normal tissues; format: cell-based; conditions: read-out: IC50 range
# [4] = tested on: MCL line JEKO-1 vs normal human tissues; format: cell-based
# MRC5 = experiment: cells; format: cell-based; conditions: Homo sapiens, MRC5, 72 h
# 16HBE SV40+ = experiment: cells; format: cell-based; conditions: Homo sapiens, 72 h
# BMEC-hTert = experiment: cells; format: cell-based; conditions: Homo sapiens, 72 h
# HUVEC = experiment: 72 hr cytotoxicity: Umbilical endothelium; format: cell-based; conditions: Homo sapiens
# Mino = experiment: Drug combination cytotoxicity with BO-1055; format: cell-based, human; conditions: for IC50: Homo sapiens, MINO, read-out: IC50 single drug
# BMMSC = experiment: 72 hr cytotoxicity: BM Mesenchyme; format: cell-based; conditions: Homo sapiens, 72 hr, read-out: IC50
# JEKO-1 = experiment: Drug combination cytotoxicity with BO-1055; format: cell-based; conditions: Homo sapiens, read-out: IC50 single drug
# NECB1 = experiment: Drug combination cytotoxicity with BO-1055; format: cell-based, human; conditions: for IC50: Homo sapiens, read-out: IC50 single drug
# REC-1 = experiment: Drug combination cytotoxicity with BO-1055; format: cell-based, human
# [5] = tested on: A673 Ewing's sarcoma cell line; experiment: Combination cytotoxicity (Alamar blue, Compusyn CI); format: cell-based, human; conditions: A673, simultaneous, lattice format
# Granta = experiment: Drug combination cytotoxicity with BO-1055; format: cell-based, human; conditions: for IC50: Homo sapiens, read-out: IC50 single drug
# Z-138 = experiment: Drug combination cytotoxicity with BO-1055; format: cell-based, human; conditions: for IC50: Homo sapiens, read-out: IC50 single drug
# HBL2 = experiment: Drug combination cytotoxicity with BO-1055; format: cell-based; conditions: Homo sapiens, read-out: IC50 single drug
# Kasumi-1 AML-ETO = experiment: Cytotoxicity: AML line; format: cell-based; conditions: Homo sapiens; Kasumi-1; read-out: IC50
# CCRF-CEM/Taxol = experiment: Cytotoxicity: Paclitaxel-resistant subline; format: cell-based; conditions: Homo sapiens; CCRF-CEM/Taxol; read-out: IC50
# CCRF-CEM = experiment: Cytotoxicity: T-cell leukemia; format: cell-based; conditions: Homo sapiens, read-out: IC50
# RH30 = experiment: Cytotoxicity: Rhabdomyosarcoma (Alveolar type); conditions: Homo sapiens, Rh30
# MOLT-4 = experiment: Cytotoxicity: T-ALL; format: cell-based; conditions: Homo sapiens, read-out: IC50
# COG-LL-317 = experiment: Cytotoxicity: T-ALL; format: cell-based; conditions: Homo sapiens; COG-LL-317; read-out: IC50
# CHLA-9 = experiment: Cytotoxicity: Ewing's sarcoma; conditions: Homo sapiens, read-out: cytotoxic activity (IC50)
# JURKAT = experiment: Cytotoxicity: T-ALL; format: cell-based; conditions: Homo sapiens, read-out: IC50
# [6] = tested on: Ewing's sarcoma cell lines; experiment: Cytotoxicity on sarcoma panel; format: cell-based; conditions: Homo sapiens; read-out: IC50 range
# HL-60 = experiment: Cytotoxicity: AML line; format: cell-based; conditions: Homo sapiens, read-out: IC50
# [7] = tested on: Ewing's sarcoma primary patient tumor; experiment: Cyclophosphamide-resistant primary Ewing's sarcoma xenograft; format: in vivo, NSG mice; conditions: cyclophosphamide 70 mg/kg i.p. x3, then BO-1055 30 mg/kg iv x4
smiles,measurement,setting,value
"O=NN(CCCl)C(=O)NCCCl [BCNU, Carmustine]",IC50,H69,103 µM
same,IC50,H226,≥ 150 µM
same,IC50,H596 (PIK3CA),≥ 225 µM
same,IC50,H647 (KRAS),≥ 150 µM
same,IC50,H417,≥ 75 µM
same,IC50,H526,≥ 30 µM
same,IC50,H128,≥ 75 µM
same,IC50,H187,≥ 35 µM
same,IC50,H322,≥ 200 µM
same,IC50,H678,≥ 125 µM
same,IC50,H249,≥ 75 µM
same,IC50,H82,≥ 150 µM
same,IC50,H562,≥ 35 µM
same,IC50,H146,≥ 95 µM
same,IC50,H520 (FGFR),≥ 120 µM
same,IC50,H125,≥ 100 µM
same,IC50,H524,≥ 45 µM
same,IC50,H23,≥ 100 µM
same,IC50,H719,≥ 100 µM
same,IC50,H60,36 µM
same,IC50,H209,≥ 35 µM
same,IC50,H358 KRAS,≥ 75 µM
Cn1c(CCCC(=O)O)nc2cc(N(CCCl)CCCl)ccc21 [Bendamustine],IC50,"HS578; Hs578, 72 h",> 100 µM
same,IC50,BEAS2B SV40,> 10 µM
same,IC50,[1]; 72 h,10 µM
same,IC50,FTE-hTERT; 72 h,400 µM
same,IC50,"IMR90; IMR-90, 72 h",32.3 µM
same,IC50,BCI-NSI hTERT; 72 h,85 µM
same,IC50,[2],10 µM
same,IC50,MS-5 (mouse),2.24 µM
same,IC50,[3],20 to 400 µM
same,TW,[4],1.60-6.36 fold
same,IC50,MRC5,> 20 µM
same,IC50,16HBE SV40+,3.55 µM
same,IC50,BMEC-hTert,300 µM
same,IC50,"HUVEC; HUVEC, 72 h",140 µM
CC(C)NCCCn1c(Sc2cc3c(cc2I)OCO3)nc2c(N)ncnc21 [PUH71],IC50,Mino; 72 hrs alamar blue,0.263 µM
same,"interaction with BO-1055 (combo-1, combo-2)","Mino; Mino, 72 hrs alamar blue",dually synergistic
same,IC50,BMMSC; HuMSC bone marrow mesenchymal stem cells,0.63 µM
same,IC50,"JEKO-1; JEKO-1, 72 hrs alamar blue",0.037 µM
same,IC50,"NECB1; NECB1, 72 hrs alamar blue",1.66 µM
same,"interaction with BO-1055 (combo-1, combo-2)","NECB1; NECB1, 72 hrs alamar blue",synergistic with BO-1055 against NECB1 in combo-1 and antagonistic in combo-2
same,"interaction with BO-1055 (combo-1, combo-2)","REC-1; REC-1, 72 hrs alamar blue",antagonistic against REC-1 in both combinations
same,interaction with BO-1055,[5],exhibits synergism
same,"interaction with BO-1055 (combo-1, combo-2)","Granta; Granta, 72 hrs alamar blue",dually antagonistic
same,IC50,"Granta; GRANTA, 72 hrs alamar blue",1.22 µM
same,IC50,"[1]; CD34 (cord blood hematopoietic progenitors), 72 hr, read-out: IC50",0.05 µM
same,IC50,"FTE-hTERT; FTEC Fallopian tube epithelium, 72 hr, read-out: IC50",80 µM
same,IC50,"BCI-NSI hTERT; Bci-NSI hTERT immortalized lung bronchus epithelium, 72 hr, read-out: IC50",1.5 µM
same,IC50,"Z-138; Z-138, 72 hrs alamar blue",0.162 µM
same,"interaction with BO-1055 (combo-1, combo-2)","Z-138; Z-138, 72 hrs alamar blue",synergistic with BO-1055 in both combinations
same,IC50,"HUVEC; HUVEC endothelium, 72 hr, read-out: IC50",0.35 µM
same,IC50,"HBL2; HBL2, 72 hrs alamar blue",0.499 µM
Cn1nnc2c(C(N)=O)ncn2c1=O [Temozolomide],IC50,Kasumi-1 AML-ETO,389 µM
same,IC50,CCRF-CEM/Taxol,502 µM
same,IC50,"HS578; HS578, 72 hr, read-out: IC50",> 100 µM
same,IC50,CCRF-CEM,424 µM
same,IC50,BMMSC,≥ 45 µM
same,IC50,"IMR90; IMR-90, IMR90, 72 hr, read-out: IC50",57.3 µM
same,IC50,RH30,9 µM
same,IC50,MOLT-4,182 µM
same,IC50,"BCI-NSI hTERT; BCI-NSI hTERT, 72 hr, read-out: IC50",≥ 40 µM
same,IC50,MS-5 (mouse); read-out: IC50,5.5 µM
same,IC50,COG-LL-317,181 µM
same,IC50,CHLA-9,294 µM
same,IC50,JURKAT,2.07 µM
same,IC50,[6],245 to 405 µM
same,IC50,"HUVEC; HUVEC, 72 hr, read-out: IC50",4.35 µM
same,IC50,HL-60,49 µM
O=P1(N(CCCl)CCCl)NCCCO1 (stereo not shown) [cyclophosphamide],tumor response,[7],Tumor growth was not inhibited
"CC(C)C[C@H](NC(=O)[C@H](Cc1ccccc1)NC(=O)c1cnccn1)B(O)O [velcade, Bortezomib]","interaction with BO-1055 (combo-1, combo-2)",Mino,synergistic cytotoxic with both combinations
same,IC50,Mino; 72 h,0.04 µM
same,IC50,"JEKO-1; JeKo-1, 72 h",0.015 µM
same,"interaction with BO-1055 (combo-1, combo-2)",NECB1,synergistic with combo-1 and antagonistic with combo-2
same,IC50,NECB1; 72 h,0.137 µM
same,"interaction with BO-1055 (combo-1, combo-2)",REC-1,antagonistic in both combinations
same,IC50,"REC-1; Homo sapiens, Rec1, 72 h, read-out: IC50 single drug",0.008 µM
same,"interaction with BO-1055 (combo-1, combo-2)",Granta,synergistic with combo-1 and antagonistic with combo-2
same,IC50,Granta; 72 h,0.008 µM
same,"interaction with BO-1055 (combo-1, combo-2)",Z-138,synergistic cytotoxic with both combinations
same,IC50,"Z-138; Z-138, 72 h",0.008 µM
same,IC50,"HBL2; HBL2, 72 h",0.005 µM
